Results from publication PMC5610242, “Stapled peptide inhibitors of RAB25 target context-specific phenotypes in cancer” (Nature Communications, 2017).
Bridge positions count the residues as written; N and C are the ends. Square brackets hold non-standard residues; d marks the D form. Peptide text beside a SMILES is read from it. S5 = C=CCCC[C@](C)(N)C(=O)O; Nle = CCCC[C@H](N)C(=O)O; βAla = NCCC(=O)O

Tested on: all cell lines tested (HEY, MCF7, MDA-MB231)
Assay: Toxicity seen in wound healing studies
Type: cell-based
Conditions: 10 μM
Procedure: Cells were seeded at a density of 5000–7000 cells for HEY and MDA-MB231 or 15,000 cells for MCF7 on each side of an Ibidi culture insert (Ibidi, Munich, Germany), with a 500 μm separation between each side of the well, and allowed to grow for 24 h to attain a compact monolayer. Cells were pretreated with, or without, RFP peptides (10 μM) or DMSO control for 12 h before removal of the insert, and following removal of the insert cells were incubated in RFP-containing media or DMSO control for the duration of wound closure. Cells were photographed using a Life Technologies EVOS XL Core imaging system 4× or a Nikon DS camera connected to a Nikon Eclipse Ti microscope objective at insert removal (0 h) and when wound closure was complete under control conditions. Experiments were performed in duplicate and a minimum of four fields of the injury were photographed and used for quantification.

CCCC[C@H](NC(=O)[C@@H](NC(=O)[C@H](CCCNC(=N)N)NC(=O)[C@@H](NC(=O)[C@@H](NC(=O)[C@]1(C)CCCC=CCCC[C@](C)(NC(=O)[C@H](CC(N)=O)NC(=O)[C@H](CCC(N)=O)NC(=O)[C@H](CC(C)C)NC(=O)[C@H](CCCNC(=N)N)NC(=O)[C@H](Cc2ccccc2)NC(=O)[C@H](CC(N)=O)NC(=O)[C@@H](NC(=O)[C@H](CCCNC(=N)N)NC(=O)CCNC(=O)[C@@H](N)Cc2c[nH]c3ccccc23)[C@@H](C)CC)C(=O)N[C@@H]([C@@H](C)CC)C(=O)N[C@@H](CC(=O)O)C(=O)N[C@@H](CCCNC(=N)N)C(=O)N1)[C@@H](C)CC)C(C)C)[C@@H](C)CC)C(=O)N[C@@H](CCC(=O)O)C(=O)N[C@H](C(=O)N[C@@H](CC(N)=O)C(=O)N1CCC[C@H]1C(=O)N[C@@H](CO)C(=O)N[C@H](C(=O)N[C@@H](CC(C)C)C(=O)N[C@@H](CCCNC(=N)N)C(=O)N[C@H](C(=O)N[C@@H](CCCCN)C(N)=O)C(C)C)[C@@H](C)CC)[C@@H](C)O [RFP26] (H-W[βAla]RINFRLQN[S5]IDR[S5]IVRI[Nle]ETNPSILRVK-NH2; staple 11-15)
toxicity in wound healing studies: considerable toxicity
